Experiment [1] addresses T1, CETP (Homo sapiens, UniProt P11597).
T1 sequence (P11597 18-493): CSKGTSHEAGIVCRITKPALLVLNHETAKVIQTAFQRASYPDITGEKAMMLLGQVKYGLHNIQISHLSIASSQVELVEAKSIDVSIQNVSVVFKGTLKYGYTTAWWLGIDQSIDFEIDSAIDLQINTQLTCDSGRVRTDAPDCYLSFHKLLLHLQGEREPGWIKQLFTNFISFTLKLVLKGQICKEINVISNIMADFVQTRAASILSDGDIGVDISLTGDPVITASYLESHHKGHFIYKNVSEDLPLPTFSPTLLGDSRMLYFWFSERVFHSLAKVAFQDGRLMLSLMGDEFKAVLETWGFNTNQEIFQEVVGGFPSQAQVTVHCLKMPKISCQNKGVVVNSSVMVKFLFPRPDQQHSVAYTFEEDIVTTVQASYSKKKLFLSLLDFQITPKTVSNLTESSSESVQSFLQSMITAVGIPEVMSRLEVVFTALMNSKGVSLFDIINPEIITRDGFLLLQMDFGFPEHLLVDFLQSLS
Description: In vitro CETP activity inhibitory effect in whole plasma. The experiment is classed as biochemical. Further details: Plasma containing [^3H]CE-HDL3 (600,000 dpm/ml) was prepared by adding donor lipoprotein obtained in the above (1) to plasma from healthy subjects; from tissue; host or cells: whole plasma of healthy subjects. The conditions noted are these: plasma from healthy subjects containing [3H]CE-HDL3, incubated 4 hours at 37° C.; read-out: CETP activity inhibition in whole plasma IC50. The essentials:
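HDL3 was labelled with tritiated cholesterol (10 nM) for 18 h at 37° C in PBS with EDTA (pH 7.4). Test samples were in 1:1 N-methylpyrrolidone/PEG 400 and assayed in whole plasma. IC50 was calculated from % inhibition of CETP activity.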

The target of experiment [2] is T1, CETP. Description: Ex vivo CETP activity inhibitory effect of plasma from transgenic mice. The following applies: mouse, po, p.o., 6 hours after administration, transgenic mice with human CETP gene, read-out: CETP activity inhibitory rate in plasma from transgenic mouse. Set-up: from tissue; host or cells: plasma of transgenic mice carrying the human CETP gene. As for the experimental part: Potassium bromide (KBr) was added to the plasma of healthy subjects (40 ml) to adjust specific gravity to d=1.125 g/ml. Density gradient centrifugation (227,000×g, 4° C., 17 hours) was conducted to obtain a fraction with specific gravity d>1.125 g/ml (HDL3 fraction). The fraction thus obtained was dialyzed against a PBS solution [10 mM Na2HPO4/10 mM NaH2PO4/0.15 M NaCl/1 mM EDTA (pH 7.4)]. Then, tritium-labeled cholesterol (10 nM) (50.3 Ci/mM) was dissolved in 95% ethanol and added gradually to the above HDL3 fraction under stirring. The solution was incubated for 18 hours at 37° C. [Tritium-labeled cholesterol was esterified by this procedure by the action of lecithin:cholesterol acyltransferase (LCAT) present on the surface of HDL3 and taken up into the interior of HDL3 as tritium-labeled cholesterylester ([^3H]CE)]. After incubation, KBr was added and specific gravity was adjusted to d=1.21 g/ml. Density gradient centrifugation (227,000×g, 4° C., 17 hours) was conducted and the fraction with d<1.21 g/ml was harvested. The fraction thus obtained was dialyzed against the above PBS solution to obtain HDL3 that took up [^3H]CE ([^3H]CE-HDL3, specific gravity: 1.125<d<1.21, specific activity: 101,000 dpm/nM), which served as donor lipoprotein.
Physiological saline (specific gravity d=1.006 g/ml) was layered upon the plasma of healthy subjects (100 ml). Density gradient centrifugation (227,000×g, 4° C., 4 hours) was conducted and the fraction with specific gravity d>1.006 g/ml was harvested. KBr was added to the fraction thus obtained to adjust specific gravity to d=1.063 g/ml and density gradient centrifugation (227,000×g, 4° C., 20 hours) was conducted to harvest the fraction with specific gravity […]. The thus-obtained fraction was dialyzed against the above PBS solution to obtain fractions containing IDL and LDL (specific gravity: 1.006<d<1.063), which served as acceptor lipoprotein.
Samples were suspended in a 0.5% methylcellulose solution and administered orally using a plastic probe to transgenic mice having introduced human CETP gene (hereafter referred to as mice; prepared using the method described in Japanese Patent Application No. Hei 8-130660), which had been fasted overnight. Blood was collected before administration, and 6 hours after administration CETP activity in the plasma was determined using the following method.
Donor lipoprotein ([^3H]CE-HDL3, containing 0.21 μg cholesterol) obtained in the above (1), acceptor lipoprotein obtained in the above (2) (containing 21 μg of cholesterol), and 0.9 μl of mice plasma were added to microtubes. A total volume was adjusted to 600 μl/tube with a TBS solution [10 mM Tris/0.15 M NaCl (pH 7.4)]. The microtubes were incubated for 15 hours at 37° C. or 4° C. Then, an ice-cooled TBS solution (400 μl/tube) and a 0.3% dextran sulfate solution (100 μl/tube) containing 0.15 M magnesium chloride were added to the microtubes and mixed well. After allowing the microtubes to stand for 30 minutes at 4° C., centrifugation (8,000 rpm, 4° C., 10 minutes) was carried out and radioactivity of the resulting supernatant (HDL fraction) was determined with a scintillation counter.

Structures are written as SMILES.

What is called IC50 is the point on the concentration scale where inhibition reaches its midpoint.

In the case of `CC(C)CCC1(C(=O)Nc2ccccc2SC(=O)C(C)(C)C)CCCC1` [Example 48], the IC50 on CETP [1] worked out at 49 µM. For the same compound, the inhibition at 30 mg/kg on CETP [2] is 31%. The inhibition at 100 mg/kg on CETP [2] (100 mg/kg) worked out at 50%.

Take `CC(=O)Sc1ccccc1NC(=O)C1(CCC(C)C)CCCC1` [Example 49]: on CETP [1], the IC50 stood at 6 µM. On CETP [2], the inhibition at 30 mg/kg was 29%.

For the compound `CC(C)CCC1(C(=O)Nc2cc(C(F)(F)F)ccc2SC(=O)C(C)(C)C)CCCCC1` [Example 52], the IC50 on CETP [1] is 8 µM. Besides, the inhibition at 30 mg/kg on CETP [2] came out at 8%.

For `CC(C)CCC1(C(=O)Nc2ccccc2SC(=O)Nc2ccccc2)CCCCC1` [Example 56], the IC50 on CETP [1] is 13 µM. Moreover, the inhibition at 30 mg/kg on CETP [2] was 34%.

As for `CCC(CC)CC1(C(=O)Nc2ccccc2SC(C)=O)CCCCC1` [Example 59], on CETP [1], the IC50 turned out to be 4 µM. The inhibition at 30 mg/kg at CETP [2] stood at 44%.

Consider `CCC(CC)CC1(C(=O)Nc2ccccc2SC(=O)C(C)(C)C)CCCCC1` [Example 60], for which the IC50 at CETP [1] amounted to 41 µM. The inhibition at 30 mg/kg at CETP [2] was 44%.

Turning to `CCC(CC)CC1(C(=O)Nc2ccccc2SC(=O)COC)CCCCC1` [Example 61], the IC50 at CETP [1] came to 4 µM. In addition, the inhibition at 30 mg/kg at CETP [2] was found to be 38%.

For the compound `CCC(CC)CC1(C(=O)Nc2ccccc2SC(=O)C(C)(C)O)CCCCC1` [Example 62], the IC50 on CETP [1] was found to be 4 µM. Besides, the inhibition at 30 mg/kg on CETP [2] was found to be 38%.

For `CCC(CC)CC1(C(=O)Nc2ccccc2SC(=O)COc2ccc(Cl)cc2)CCCCC1` [Example 63], the IC50 on CETP [1] was found to be 4 µM. Besides, the inhibition at 30 mg/kg on CETP [2] turned out to be 43%.

Regarding `CC(C)CC1(C(=O)Nc2ccccc2SC(=O)COc2ccc(Cl)cc2)CCCCC1` [Example 64], the IC50 on CETP [1] was 4 µM. The inhibition at 30 mg/kg on CETP [2] came to 34%.

As for `CC(C)CCC1(C(=O)Nc2cc([N+](=O)[O-])ccc2SC(=O)C(C)(C)C)CCCCC1` [Example 74], the IC50 at CETP [1] was found to be 14 µM. The inhibition at 30 mg/kg on CETP [2] was 5%.

`CC(C)CCC1(C(=O)Nc2cc(C#N)ccc2SC(=O)C(C)(C)C)CCCCC1` [Example 75]: the IC50 on CETP [1] was found to be 25 µM. For the same compound, on CETP [2], the inhibition at 30 mg/kg was 1%.

With `CC(C)CCC1(C(=O)Nc2cc(Cl)ccc2SC(=O)C(C)(C)C)CCCCC1` [Example 76], at CETP [1], the IC50 is 18 µM. On CETP [2], the inhibition at 30 mg/kg turned out to be 4%.

As for `CC(C)CCC1(C(=O)Nc2ccc(Cl)cc2SC(=O)C(C)(C)C)CCCCC1` [Example 77], at CETP [1], the IC50 is 17 µM. On CETP [2], the inhibition at 30 mg/kg is 1%.

As to `CC(C)CCC1(C(=O)Nc2cc(F)ccc2SC(=O)C(C)(C)C)CCCCC1` [Example 79], the IC50 at CETP [1] worked out at 60 µM. Further, the inhibition at 10 mg/kg on CETP [2] (10 mg/kg) came to 14%. Besides, the inhibition at 30 mg/kg on CETP [2] was 26%.

`CC(C)CCC1(C(=O)Nc2cc(F)c(F)cc2SC(=O)C(C)(C)C)CCCCC1` [Example 80]: the IC50 at CETP [1] amounted to 6 µM. Moreover, the inhibition at 30 mg/kg at CETP [2] was determined as 12%.

For `CC(C)CCC1(C(=O)Nc2ccc(F)cc2SC(=O)C(C)(C)C)CCCCC1` [Example 81], on CETP [1], the IC50 turned out to be 21 µM. The inhibition at 30 mg/kg at CETP [2] is 10%.

Values taken from patent US9000045B2, “CETP activity inhibitors” (Japan Tobacco Inc., priority 1997, dated 2015).
